Patent US11376307B2, “Compositions and methods of treating cancer with glycomimetic peptides” (SUSAVION BIOSCIENCES, INC., priority 2018, dated 2022)
“Also recorded” adds a separate entry of the source. Positions of bridges follow the written chain, without caps; N, C: chain ends. Chains are numbered I, II in the order given.

What was measured:
human ASGPR-1 = target: T1, human ASGPR-1 (Homo sapiens, UniProt P07306); test: Solid-phase binding assay with recombinant receptors; conditions: biotinylated tetravalent peptide
T1 construct: The extracellular domains of receptors, which were fused with the Fc domain of immunoglobulin IgG; purchased R&D Systems
T1 sequence (P07306 62-291 limits assumed): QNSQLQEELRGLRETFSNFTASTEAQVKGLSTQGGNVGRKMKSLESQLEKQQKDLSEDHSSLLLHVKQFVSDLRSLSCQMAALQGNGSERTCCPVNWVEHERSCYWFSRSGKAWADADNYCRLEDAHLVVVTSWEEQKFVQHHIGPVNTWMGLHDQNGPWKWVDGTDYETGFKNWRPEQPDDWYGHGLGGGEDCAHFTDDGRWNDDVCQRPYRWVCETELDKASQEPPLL
Experimental: (§1) Binding Assays Solid-phase binding assays were performed with streptavidin-, protein A/G-, or Nickel-coated microtiter plates (Pierce). His-tagged or Fc-fusion recombinant receptors (R&D Systems, Minneapolis, Minn.) were reconstituted in PBS. Sufficient receptors were added to wells to saturate the coating. His-tagged receptors were added to each well at a 5-fold excess over the stated capacity of the Ni coating to minimize non-specific binding of the peptide. Wells were washed three times with binding buffer (25 mM Tris HCl, pH 7.4, 150 mM NaCl, 0.05% Tween-20) to remove unbound receptor and 50 μL of 2 μM biotinylated peptide in binding buffer were added and allowed to incubate for 1 h. The wells were washed four times with binding buffer and then incubated with 50 μL of 1 μg/mL streptavidin conjugated with peroxidase (Sigma-Aldrich) for 1 h. The wells were washed five times with binding buffer and 50 μL of peroxidase substrate (1-Step™ Ultra TMB, Pierce) were added. After several minutes to allow color development, the reaction was stopped with 50 μL 1 M H3PO4 and absorbance was measured at 450 nm. Bound streptavidin was quantitated by the specific activity of peroxidase (absorbance/ng protein conjugate/min) under the conditions of the assay.
(§2) Solid-phase binding assays were performed with recombinant human receptors. Three variations of the binding assay were used in this study, all of which allowed the arms of the tetravalent peptide to have full flexibility. (i) Biotinylated peptide was bound in microtiter wells coated with streptavidin and incubated with recombinant human receptors. After extensive washing, the bound receptor was measured by peroxidase conjugated to a receptor-specific antibody. (ii) The extracellular domains of receptors, which were fused with the Fc domain of immunoglobulin IgG, were bound in wells coated with protein A/G. Biotinylated peptide was incubated with the receptors and, after extensive washing, bound peptide was measured with streptavidin conjugated with peroxidase. Or (iii), recombinant receptors with a poly-His tag were bound to Nickel-coated wells and incubated with biotinylated peptide. svL4 and sv6D contain His residues (FIGS. 1A, 1C) and can bind to the Ni coating, which was minimized by adding sufficient poly-His-tagged receptor to saturate the Ni coating.

[1] = target: T2, recombinant human CLEC10A (Homo sapiens, UniProt Q8IUN9); test: as above; conditions: for Binding to CLEC10A: biotinylated tetravalent peptide
T2 construct: The extracellular domains of receptors, which were fused with the Fc domain of immunoglobulin IgG; purchased R&D Systems
T2 sequence (Q8IUN9 61-316 limits assumed): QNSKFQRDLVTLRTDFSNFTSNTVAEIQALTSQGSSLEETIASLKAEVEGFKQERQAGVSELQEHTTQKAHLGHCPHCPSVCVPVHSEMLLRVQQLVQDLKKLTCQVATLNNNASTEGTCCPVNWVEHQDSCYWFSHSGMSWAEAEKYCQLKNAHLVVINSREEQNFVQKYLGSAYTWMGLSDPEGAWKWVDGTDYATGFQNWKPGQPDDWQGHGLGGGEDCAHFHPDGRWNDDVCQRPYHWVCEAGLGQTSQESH
Experimental: as §1, §2

CLEC4F = test: Solid-phase binding assay, survey of other receptors; design: species or system human
Experimental: as §1, with “The wells were washed five times with binding buffer and 50 μL of peroxidase substrate (1-Step™ Ultra TMB, Pierce) were added.” left out
Solid-phase binding assays were performed with recombinant human receptors. […] After extensive washing, the bound receptor was measured by peroxidase conjugated to a receptor-specific antibody. […]

[2] = Antigenicity assay of mouse sera; design: species or system mice; conditions: alternate-day injections for 3 months, 1 nmol/g
Experimental: FIG. 10. Test for antigenicity of svL4 and sv6D. Anti-sera were generated in rabbits against KLH-conjugates of the sequences of svL4 or sv6D and diluted 1:10. Mouse sera were collected after alternate-day injections of svL4 over 3 months, diluted 1:1 with PBS and added to protein-A/G-coated wells. Biotinylated svL4 or sv6D was added to wells and bound peptide was detected with a streptavidin-peroxidase conjugate. The figure includes average values for sera from 8 treated mice in each group assayed separately.
Antigenicity Assay The sequence of one arm of svL4 or sv6D was conjugated to keyhole limpet hemocyanin (KLH) and injected into rabbits at two-week intervals (total of 3 injections) (New England Peptide, Inc., Gardner, Mass.). Two weeks after the final injection, sera were prepared. Mice were injected with a peptide every other day over a period of 3 months (total ˜45 injections), blood was then collected by cardiac puncture and sera were prepared. Rabbit serum was diluted 1:10, whereas mouse serum was diluted 1:1 or 1:5 with PBS containing 0.05% Tween-20 (PBST). Sera were incubated in microtiter wells coated with protein A/G (Pierce) for 90 min. The wells were washed three times with PBST, and then incubated with 50 μL of 1 μM biotinylated svL4 or sv6D for 1 h. […]

[3] = tested on: monocytes in the peritoneal cavity; test: Response of peritoneal monocytes in RAG−/− mice; format: in vivo; conditions: mice lacking B and T cells
Experimental: To determine whether the target(s) for svL4 is located on lymphocytes, with subsequent cross-talk signaling to achieve activation of monocytes, an experiment was performed in which svL4 was injected into RAG^−/− mice, which lack activity of rag, the recombination activation gene. The ability to perform recombination to generate antigen-specific antibodies by V(D)J recombination is required for B and T cell precursors to produce functional antigen receptors on their surface, and without a functional rag gene these cells undergo apoptosis.

Row | Substance | Binding to ASGPR-1 (human ASGPR-1) | Binding to CLEC10A [1] | Ca2+ dependence of binding ([1]; chelation of Ca2+ with low concentrations of EGTA, CLEC10A and ASGPR-1) | Binding to CLEC4F (CLEC4F) | Antibodies that bind the peptides in mouse sera (antigenicity) [2] | Response of peritoneal monocytes [3]
1 | I: H-NQHTPRGGGSKK-NH2 / II: H-NQHTPRGGGSK / III: H-NQHTPRGGGS / IV: H-NQHTPRGGGS (amide I:11-IV:C, I:12-II:C, II:11-III:C) [sv6D] | bound as strongly as the full-length sequence | bound as strongly as the full-length sequence | requires Ca^2+ | bound | negative; also recorded: not antigenic | –
2 | I: H-VQATQSNQHTPRGGGSKK-NH2 / II: H-VQATQSNQHTPRGGGSK / III: H-VQATQSNQHTPRGGGS / IV: H-VQATQSNQHTPRGGGS (amide I:17-IV:C, I:18-II:C, II:17-III:C) [svL4] | bound | bound | – | bound | negative | essentially the same as that in C57BL/6 mice
